Reference: patent US9676760B2, “Fused heterocyclic compounds as ion channel modulators” (Gilead Sciences, Inc., priority 2011, dated 2017)

Molecular target: wild-type human cardiac sodium channel, hNav1.5 (Homo sapiens, UniProt Q14524)
Experiment: Late INa screening assay (QPatch whole cell patch clamp, HEK293)
Format: cell-based
Settings: HEK293, percent block of late INa; compound at 1 μM; 10 μM Tefluthrin; read-out: Late INa 1 μM
Experimental: The late sodium current (Late INa) and peak sodium current (Peak INa) assays are performed on an automated electrophysiology platform, QPatch 16× (Sophion Bioscience, Copenhagen, Denmark), which uses the whole cell patch clamp technique to measure currents through the cell membrane of up to 16 cells at a time. The assay uses an HEK293 (human embryonic kidney) cell line heterologously expressing the wild-type human cardiac sodium channel, hNav1.5, purchased from Millipore (Billerica, Mass.). No beta subunits were coexpressed with the Na channel alpha subunit. Cells are maintained with standard tissue culture procedures and stable channel expression is maintained with 400 μg/mL Geneticin in the culture medium. Cells isolated for use on QPatch are incubated for 5 minutes in Detachin 1×(Genlantis, San Diego, USA) at 37° C. to ensure that 80-90% of the cells are single and not part of a cell cluster. Experiments are carried out at 23-25° C.
For both the Late INa and Peak INa assays, series resistance compensation is set to 100% and series resistance and whole-cell compensation are performed automatically. Currents are digitized at 25 kHz and low-pass filtered at 12 kHz and 10 kHz for the late and peak INa assays, respectively. Currents through open sodium channels are automatically recorded and stored in the Sophion Bioscience Oracle database (Sophion Bioscience, Copenhagen, Denmark). Analysis is performed using QPatch Assay and database software and data are compiled in Excel.
Compound stocks are routinely made by the Gilead Sample Bank in plastic vials to 10 mM in dimethyl sulfoxide (DMSO). In some cases, when compounds are not soluble in DMSO, they are made in 100% ethanol. Stocks are sonicated as necessary. The extracellular solution for screening Late INa is composed of: 140 mM NaCl, 4 mM KCl, 1.8 mM CaCl2, 0.75 mM MgCl2 and 5 mM HEPES with pH adjusted to 7.4 using NaOH. The intracellular solution used to perfuse the inside of the cells for both the Late INa and Peak INa assays contains: 120 mM CsF, 20 mM CsCl, 5 mM EGTA, 5 mM HEPES and pH adjusted to 7.4 with CsOH. Compounds are diluted in extracellular solution to 1 μM in glass vials and then transferred to glass well plates before robotic addition to the cells. The 0 mM Na extracellular solution (0Na-ECF) used at the end of each experiment for the Late INa and Peak INa assays to measure baseline current contains: 140 mM N-methyl-D-glucamine; 4 mM KCl; 1.8 mM CaCl2; 0.75 mM MgCl2; 5 mM HEPES and pH was adjusted to 7.4 with HCl.
For the Late INa assay, sodium channels are activated every 10 seconds (0.1 Hz) by depolarizing the cell membrane to −20 mV for 250 milliseconds (ms) from a holding potential of −120 mV. In response to a −20 mV voltage step, typical hNav1.5 sodium currents activate rapidly to a peak negative current and then inactivate nearly completely within 3-4 ms.
Compounds were tested to determine their activity in blocking the late sodium current. Late INa was generated by adding 10 μM Tefluthrin (pyrethroid) to the extracellular solution while recording Na currents. […] ATX-II and tefluthrin occupy distinct, non-overlapping binding sites and modify Na^+ channel function differently to increase late INa. […] After establishing the whole cell recording configuration, late INa activator is added to each well 4 times over a 16-17 minute period so that the late component of the Na current reaches a stable value.
Results are reported as percent block of late INa.

Sequence of wild-type human cardiac sodium channel, hNav1.5 (Q14524 whole entry): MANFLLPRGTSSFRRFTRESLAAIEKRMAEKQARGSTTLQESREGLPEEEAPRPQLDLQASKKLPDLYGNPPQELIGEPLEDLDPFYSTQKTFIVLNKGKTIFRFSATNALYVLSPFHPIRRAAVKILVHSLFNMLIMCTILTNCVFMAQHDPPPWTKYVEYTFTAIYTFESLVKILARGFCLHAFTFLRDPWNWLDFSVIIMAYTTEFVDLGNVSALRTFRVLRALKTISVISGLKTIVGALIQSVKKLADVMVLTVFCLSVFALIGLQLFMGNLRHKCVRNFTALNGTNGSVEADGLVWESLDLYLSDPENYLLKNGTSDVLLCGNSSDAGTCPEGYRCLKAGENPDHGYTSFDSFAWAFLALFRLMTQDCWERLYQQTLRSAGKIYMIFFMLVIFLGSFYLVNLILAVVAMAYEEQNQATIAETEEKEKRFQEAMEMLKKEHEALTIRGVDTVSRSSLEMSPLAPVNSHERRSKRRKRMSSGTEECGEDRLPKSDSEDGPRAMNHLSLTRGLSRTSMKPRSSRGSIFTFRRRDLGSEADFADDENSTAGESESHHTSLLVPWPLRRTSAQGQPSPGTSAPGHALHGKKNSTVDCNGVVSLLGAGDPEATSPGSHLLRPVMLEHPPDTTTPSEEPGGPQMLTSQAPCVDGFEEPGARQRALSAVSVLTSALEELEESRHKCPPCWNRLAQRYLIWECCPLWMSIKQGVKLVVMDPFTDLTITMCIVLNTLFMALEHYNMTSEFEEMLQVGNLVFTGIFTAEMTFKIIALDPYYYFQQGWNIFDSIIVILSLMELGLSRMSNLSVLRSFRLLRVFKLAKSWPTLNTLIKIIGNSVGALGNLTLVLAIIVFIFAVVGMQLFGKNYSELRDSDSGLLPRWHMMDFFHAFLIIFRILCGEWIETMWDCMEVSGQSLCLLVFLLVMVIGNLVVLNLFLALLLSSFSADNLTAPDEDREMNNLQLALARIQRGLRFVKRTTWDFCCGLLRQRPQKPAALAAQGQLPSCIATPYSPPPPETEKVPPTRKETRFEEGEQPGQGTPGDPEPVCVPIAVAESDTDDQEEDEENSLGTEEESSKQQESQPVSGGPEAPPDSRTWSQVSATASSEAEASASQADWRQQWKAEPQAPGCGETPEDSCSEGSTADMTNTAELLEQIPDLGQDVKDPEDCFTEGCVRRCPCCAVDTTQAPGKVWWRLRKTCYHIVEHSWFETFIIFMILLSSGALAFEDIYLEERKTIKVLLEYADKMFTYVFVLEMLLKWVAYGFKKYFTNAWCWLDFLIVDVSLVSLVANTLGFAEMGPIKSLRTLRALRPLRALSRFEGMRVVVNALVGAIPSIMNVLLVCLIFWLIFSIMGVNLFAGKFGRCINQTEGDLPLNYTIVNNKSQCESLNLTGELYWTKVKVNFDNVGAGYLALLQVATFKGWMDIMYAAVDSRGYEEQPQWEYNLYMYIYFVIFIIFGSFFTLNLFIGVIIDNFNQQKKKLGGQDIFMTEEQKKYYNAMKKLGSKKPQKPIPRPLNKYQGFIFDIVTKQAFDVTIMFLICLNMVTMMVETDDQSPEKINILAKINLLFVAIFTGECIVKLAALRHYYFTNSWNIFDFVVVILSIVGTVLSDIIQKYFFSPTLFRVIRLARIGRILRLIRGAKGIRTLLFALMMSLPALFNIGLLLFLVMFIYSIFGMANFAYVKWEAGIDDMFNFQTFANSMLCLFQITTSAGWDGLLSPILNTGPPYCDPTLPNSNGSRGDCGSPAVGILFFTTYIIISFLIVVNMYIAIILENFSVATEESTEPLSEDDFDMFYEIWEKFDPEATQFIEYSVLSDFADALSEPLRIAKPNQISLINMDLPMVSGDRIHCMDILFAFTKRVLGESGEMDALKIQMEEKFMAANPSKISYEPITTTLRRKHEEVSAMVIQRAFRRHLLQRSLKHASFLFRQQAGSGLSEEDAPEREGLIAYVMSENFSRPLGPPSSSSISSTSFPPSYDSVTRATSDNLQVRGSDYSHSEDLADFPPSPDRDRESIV

| Compound | inhibition at 1 µM [%] |
| --- | --- |
| O=C1c2cc(-c3ccc(OC(F)(F)F)cc3)ccc2OCCN1Cn1ccc(C(F)(F)F)n1 [II-148, 7-(4-(trifluoromethoxy)phenyl)-4-((3-(trifluoromethyl)-1H-pyrazol-1-yl)methyl)-3,4-dihydrobenzo[f][1,4]oxazepin-5(2H)-one] | 17 |
| O=C1c2cc(-c3ccc(CC(F)(F)F)cc3)ccc2OCCN1Cc1ncccn1 [II-150, 4-(pyrimidin-2-ylmethyl)-7-(4-(2,2,2-trifluoroethyl)phenyl)-3,4-dihydrobenzo[f][1,4]oxazepin-5(2H)-one] | 27 |
| O=C1c2cc(-c3ccc(OC(F)(F)F)cc3)ccc2OCCN1Cc1ccn(C2CCCC2)n1 [II-152, 4-((1-cyclopentyl-1H-pyrazol-3-yl)methyl)-7-(4-(trifluoromethoxy)phenyl)-3,4-dihydrobenzo[f][1,4]oxazepin-5(2H)-one] | 23 |
| Cn1cnc(CN2CCOc3ccc(-c4ccc(OC(F)(F)F)cc4)cc3C2=O)c1 [II-154, 4-((1-methyl-1H-imidazol-4-yl)methyl)-7-(4-(trifluoromethoxy)phenyl)-3,4-dihydrobenzo[f][1,4]oxazepin-5(2H)-one] | 25 |
| O=C1c2cc(-c3ccc(OC(F)F)cc3)ccc2OCCN1Cc1ccccn1 [II-159, 7-(4-(difluoromethoxy)phenyl)-4-(pyridin-2-ylmethyl)-3,4-dihydrobenzo[f][1,4]oxazepin-5(2H)-one] | 28 |
| Cn1cc(CN2CCOc3ccc(-c4ccc(OC(F)(F)F)cc4)cc3C2=O)cn1 [II-160, 4-((1-methyl-1H-pyrazol-4-yl)methyl)-7-(4-(trifluoromethoxy)phenyl)-3,4-dihydrobenzo[f][1,4]oxazepin-5(2H)-one] | 48 |
| O=C1c2cc(-c3ccc(F)c(F)c3F)ccc2OCCN1Cc1ncccn1 [II-162, 4-(pyrimidin-2-ylmethyl)-7-(2,3,4-trifluorophenyl)-3,4-dihydrobenzo[f][1,4]oxazepin-5(2H)-one] | 20 |
| O=C1c2cc(-c3ccc(F)c(F)c3)ccc2OCCN1Cc1ncccn1 [II-163, 7-(3,4-difluorophenyl)-4-(pyrimidin-2-ylmethyl)-3,4-dihydrobenzo[f][1,4]oxazepin-5 (2H)-one] | 28 |
| O=C1c2cc(-c3ccc(OC(F)(F)F)cc3)ccc2OCCN1Cc1ncccc1F [II-164, 4-((3-fluoropyridin-2-yl)methyl)-7-(4-(trifluoromethoxy)phenyl)-3,4-dihydrobenzo[f][1,4]oxazepin-5(2H)-one] | 75 |
| O=C1c2cc(-c3ccc(OS(=O)(=O)C(F)(F)F)cc3)ccc2OCCN1Cc1ncccn1 [II-171, 4-(5-oxo-4-(pyrimidin-2-ylmethyl)-2,3,4,5-tetrahydrobenzo[f][1,4]oxazepin-7-yl)phenyl trifluoromethanesulfonate] | 24 |
| Cc1cnc(CN2CCOc3ccc(-c4ccc(OC(F)(F)F)cc4)cc3C2=O)cn1 [II-172, 4-((5-methylpyrazin-2-yl)methyl)-7-(4-(trifluoromethoxy)phenyl)-3,4-dihydrobenzo[f][1,4]oxazepin-5(2H)-one] | 33 |
| [2H]C1([2H])Oc2ccc(-c3ccc(OC(F)(F)F)cc3)cc2C(=O)N(Cc2ncccn2)C1([2H])[2H] [II-174, 2,2,3,3-tetradeutero-4-(pyrimidin-2-ylmethyl)-7-(4-(trifluoromethoxy)phenyl)-3,4-dihydrobenzo[f][1,4]oxazepin-5(2H)-one] | 48 |
| O=C1c2cc(-c3ccc(OC(F)(F)F)cc3)ccc2OCCN1CCNS(=O)(=O)c1ccccc1 [II-177, N-(2-(5-oxo-7-(4-(trifluoromethoxy)phenyl)-2,3-dihydrobenzo[f][1,4]oxazepin-4(5H)-yl)ethyl)benzenesulfonamide] | 22 |
| CCS(=O)(=O)NCCN1CCOc2ccc(-c3ccc(OC(F)(F)F)cc3)cc2C1=O [II-178, N-(2-(5-oxo-7-(4-(trifluoromethoxy)phenyl)-2,3-dihydrobenzo[f][1,4]oxazepin-4(5H)-yl)ethyl)ethanesulfonamide] | 19 |
| O=C1c2cc(-c3ccc(OC(F)(F)F)cc3)ccc2OCCN1CCNS(=O)(=O)C1CC1 [II-179, N-(2-(5-oxo-7-(4-(trifluoromethoxy)phenyl)-2,3-dihydrobenzo[f][1,4]oxazepin-4(5H)-yl)ethyl)cyclopropanesulfonamide] | 21 |
| O=C1c2cc(-c3ccc(OC(F)(F)F)cc3)ccc2OCCN1CCCS(=O)(=O)NC1CC1 [II-190, N-cyclopropyl-3-(5-oxo-7-(4-(trifluoromethoxy)phenyl)-2,3-dihydrobenzo[f][1,4]oxazepin-4(5H)-yl)propane-1-sulfonamide] | 18 |
| O=C1c2cc(-c3ccc(OC(F)(F)F)cc3)ccc2OCCN1CCCS(=O)(=O)N1CCC1 [II-191, 4-(3-(azetidin-1-ylsulfonyl)propyl)-7-(4-(trifluoromethoxy)phenyl)-3,4-dihydrobenzo[f][1,4]oxazepin-5(2H)-one] | 25 |
| O=C(NCCN1CCOc2ccc(-c3ccc(OC(F)(F)F)cc3)cc2C1=O)c1ncccn1 [II-192, N-(2-(5-oxo-7-(4-(trifluoromethoxy)phenyl)-2,3-dihydrobenzo[f][1,4]oxazepin-4(5H)-yl)ethyl)pyrimidine-2-carboxamide] | 15 |
| O=C1c2cc(-c3ccc(Oc4ccc(F)cc4)cc3)ccc2OCCN1Cc1ncccn1 [II-193, 7-(4-(4-fluorophenoxy)phenyl)-4-(pyrimidin-2-ylmethyl)-3,4-dihydrobenzo[f][1,4]oxazepin-5(2H)-one] | 70 |
| O=C1c2cc(-c3ccc(Oc4ccccc4)cc3)ccc2OCCN1Cc1ncccn1 [II-194, 7-(4-phenoxyphenyl)-4-(pyrimidin-2-ylmethyl)-3,4-dihydrobenzo[f][1,4]oxazepin-5(2H)-one] | 63 |
| O=C1c2cc(-c3cccc(Oc4ccccc4)c3)ccc2OCCN1Cc1ncccn1 [II-195, 7-(3-phenoxyphenyl)-4-(pyrimidin-2-ylmethyl)-3,4-dihydrobenzo[f][1,4]oxazepin-5(2H)-one] | 66 |
| O=C(c1ccccc1)N1CCOc2ccc(-c3ccc(OC(F)(F)F)cc3)cc2C1 [III-4, phenyl(7-(4-(trifluoromethoxy)phenyl)-2,3-dihydrobenzo[f][1,4]oxazepin-4(5H)-yl)methanone] | 35 |
| CC1(C(=O)N2CCOc3ccc(-c4ccc(OC(F)(F)F)cc4)cc3C2)CC1 [III-10, (1-methylcyclopropyl)(7-(4-(trifluoromethoxy)phenyl)-2,3-dihydrobenzo[f][1,4]oxazepin-4(5H)-yl)methanone] | 29 |
| O=C(C1CC(F)(F)C1)N1CCOc2ccc(-c3ccc(OC(F)(F)F)cc3)cc2C1 [III-11, (3,3-difluorocyclobutyl)(7-(4-(trifluoromethoxy)phenyl)-2,3-dihydrobenzo[f][1,4]oxazepin-4(5H)-yl)methanone] | 20 |
| O=C(c1cnccn1)N1CCOc2ccc(-c3ccc(OC(F)(F)F)cc3)cc2C1 [III-23, pyrazin-2-yl(7-(4-(trifluoromethoxy)phenyl)-2,3-dihydrobenzo[f][1,4]oxazepin-4(5H)-yl)methanone] | 26 |
| O=C(c1cccnn1)N1CCOc2ccc(-c3ccc(OC(F)(F)F)cc3)cc2C1 [III-24, pyridazin-3-yl(7-(4-(trifluoromethoxy)phenyl)-2,3-dihydrobenzo[f][1,4]oxazepin-4(5H)-yl)methanone] | 17 |
